These results are taken from patent US6043248A, “Alpha-substituted pyrimidine-thioalkyl and alkylether compounds as inhibitors of viral reverse transcriptase” (priority 1997, dated 2000).

Assay [1] addresses T1, viral reverse transcriptase (Wild Type) (Human immunodeficiency virus type 1 group M subtype B, UniProt P04585).
T1 construct: Viral reverse transcriptase (Wild Type) is found in extracts from bacterial clones; made in house; host or cells: Escherichia coli
Description: inhibition of viral reverse transcriptase (Wild Type), cell free assay. It is filed as biochemical. The conditions noted are these: for pIC50: read-out: IC50 (Table II, Wild Type). The source says: (§1) The utility of the pyrimidine-thioalkyl and alkylether anti-AIDS compounds of Formula IA of this invention can be determined by their ability to inhibit viral reverse transcriptase, an enzyme essential for human immunodeficiency virus replication. This enzyme has characteristics which differentiate it from other known cellular polymerases and it is a unique enzyme which is not found in uninfected cells. Viral reverse transcriptase (Wild Type) is found in extracts from bacterial clones prepared according to the procedure described in AIDS Virus Reverse Transcriptase defined by high level expression in Escherichia coli, EMBO J. 6:3133-3137 (1987). P236L viral reverse transcriptase is obtained by PNAS 90: 4713-4717 (1993). Inhibition of this enzyme is determined in a cell free assay which measures the level of radioactive precursors incorporated into DNA. Extracts prepared according to the procedure of Science, 1125-1129 (1981) are incubated in a mixture of inhibitor, 20 mM dithiothreitol, 60 mM sodium chloride, 0.05% NP-40, 10 mM magnesium chloride, 50 mM Tris pH 8.3, 10 μM [^35 S]-labeled deoxynuleoside-5'-triphosphate, 10 μg/ml RNA template (poly rC or poly rG) and 5 μg/ml DNA primer (oligo dG or oligo dT) for 30 minutes at 37° C. Incorporation of radio-labeled percursor is determined by spotting aliquots of the reaction mixture on DE81 paper, washing the papers to remove unincorporated percursor, drying and determining counts. The results (IC50 means the concentration, in μM of drug, required to inhibit the reverse transcriptase activity (P236L and Wild Type) to the extent of 50%) of various assay(s) are combined and reported as % inhibition and/or IC50 (calculated) in Table I (P236L) and Table II (Wild Type).

The target in assay [2] is T2, P236L viral reverse transcriptase (Human immunodeficiency virus type 1 group M subtype B, UniProt P04585, P823L).
T2 construct: P236L viral reverse transcriptase is obtained by PNAS 90: 4713-4717 (1993); made in house
As to the kind of experiment: inhibition of viral reverse transcriptase (P236L), cell free assay. It is filed as biochemical. The conditions noted are these: 30 minutes at 37° C.
Description: as §1

The mark [3] stands for this setting: read-out: IC50 (Table I, P236L).

pIC50: −log10 of the molar value. Counter-ions that a name gives are not always drawn. Like-named read-outs stand apart in the source and are kept apart here.

For orientation: inhibition means the change of the read-out against control, counted positive when it falls. A low value points to a response near the control. In assay [1], `Nc1cc(Cl)nc(SCc2cnc3occc3c2)n1` [Example 304, 4-amino-6-chloro-2-(furo[2,3-b]pyridin-5-yl-methylthio)-pyrimidine] yielded an inhibition at 1 µM of 94%. In assay [1], `Cc1ccnc(C(C)(C)Sc2nc(N)cc(Cl)n2)c1` [Example 213] came in with an inhibition at 1 µM of 72%. For the compound `Nc1cc(Cl)nc(SC/C=C/C(=O)N2CCCC2)n1` [Example 199, (E)-1-[4-[(4-amino-6-chloro-2-pyrimidinyl)thio]-1-oxo-2-butenyl]pyrrolidine], at 1 µM the inhibition in assay [1] was 93%. As a reminder, the pIC50 is the IC50 on a negative log10 scale, so that one unit is a factor of ten. For the compound `CCc1coc2c(Cl)nc(C(C)Sc3nc(N)cc(Cl)n3)cc12` (centres unmarked) [Example 251, 4-Amino-6-chloro-2-(1-(7-chloro-3-ethylfuro-[2,3c]pyridine-5yl)ethyl)thio-pyrimidine], the pIC50 in assay [1] (30 minutes at 37° C.) is 6.84. Regarding `CC(Sc1nc(N)c(Br)c(Cl)n1)c1cc2ccccc2cn1` (centres unmarked) [Example 231, 4-Amino-5-bromo-6-chloro-2-(1-(3-isoquinolyl)ethyl)thio-pyrimidine], testing at 1 µM in assay [1] gave an inhibition of 78%. Compound `CC(Sc1nc(N)cc(Cl)n1)c1cc(CN2CCOCC2)ccn1` (centres unmarked) [Example 227, 4-Amino-6-chloro-2-(1-(4-(4-morpholinyl)methyl-2-pyridyl)ethyl)thio-pyrimidine] registered an inhibition at 50 µM in assay [1] of 49%.

With `CCCCC(Sc1nc(N)cc(Cl)n1)c1cc(C)ccn1` (centres unmarked) [Example 224, 4-Amino-6-chloro-2-(1-(4-methyl-2-pyridyl)pentyl)thio-pyrimidine], the “IC50 (Table II, Wild Type)” value in assay [1] (30 minutes at 37° C.) is listed as “INACTIVE”. Consider `CC(Sc1nc(N)cc(Cl)n1)c1cc2c(c(Cl)n1)OCC2(C)C` (centres unmarked) [Example 250, 4-Amino-6-chloro-2-(1-(7-chloro-3,3-dimethyl-2,3-dihydrofuro[2,3c]pyridine-5-yl)ethyl)thio-pyrimidine], for which, in assay [1] (30 minutes at 37° C.), the pIC50 is 6.82. In assay [1], `CC(Sc1nc(N)cc(Cl)n1)c1nccc2ccccc12` (centres unmarked) [Example 232, 4-Amino-6-chloro-2-(1-(1-isoquinolyl)ethyl)thio-pyrimidine] returned an inhibition at 1 µM of 90%. In assay [1], `CC(=O)c1ccnc(C(C)Sc2nc(N)cc(Cl)n2)c1` (centres unmarked) [Example 219, 4-Amino-6-chloro-2-(1-(4-acetyl-2-pyridyl)ethyl)thio-pyrimidine] showed an inhibition at 1 µM of 84%. For the compound `CC(Sc1nc(N)cc(Cl)n1)c1nccc2c1CCCC2` (centres unmarked) [Example 235, 4-Amino-6-chloro-2-(1-(1-(5,6,7,8-tetrahydroisoquinolyl))-ethyl)thiopyrimidine], the inhibition at 1 µM in assay [1] is 90%. On to `CCN(CC)Cc1ccnc(C(C)Sc2nc(N)cc(Cl)n2)c1` (centres unmarked) [Example 228], for which at 10 µM the inhibition in assay [1] was 84%. Take `Cc1ccnc(C(C#N)Sc2nc(N)cc(Cl)n2)c1` (centres unmarked) [Example 217, 4-Amino-6-chloro-2-(1-(4-methyl-2-pyridyl)-1-cyanomethyl)thio-pyrimidine]: the inhibition at 1 µM in assay [1] worked out at 58%. Same read-out and setting: in the case of `CN(C)C(=O)/C=C/CSc1nc(N)cc(Cl)n1` [Example 204, (E)-N,N-Dimethyl-4-[(4-amino-6-chloro-2-pyrimidinyl)thio]-2-butenamide] it was 78%. In assay [1], `COC(=O)/C=C(\C)C(C)Sc1nc(N)cc(Cl)n1` (centres unmarked) [Example 209, (E)-4-[(4-Amino-6-chloro-2-pyrimidinyl)thio]-3-methyl-2-pentenoic acid methyl ester] had an inhibition at 10 µM of 67%. For `CCOC(=O)c1cc(N)nc(SCc2ccc3ccccc3c2)n1` [Example 305, 6-amino-2-(2-naphthylmethylthio)-pyrimidine-4-carboxylic acid ethyl ester], the inhibition at 50 µM in assay [1] was found to be 21%. The compound `CCC(Sc1nc(N)cc(Cl)n1)c1cc(C)ccn1` (centres unmarked) [Example 218, 4-Amino-6-chloro-2-(1-(4-methyl-2-pyridyl)propyl)thio-pyrimidine] showed an inhibition at 1 µM in assay [1] of 84%. In the case of `Nc1cc(Cl)nc(SC/C=C/C(=O)N2CCCCC2)n1` [Example 197, (E)-1-[4-[(4-amino-6-chloro-2-pyrimidinyl)thio]-1-oxo-2-butenyl]piperidine], the inhibition at 10 µM in assay [1] worked out at 83%. `CC(Sc1nc(N)cc(Cl)n1)c1ccc2ccccc2c1` (centres unmarked) [Example 229, 4-Amino-6-chloro-2-(1-(2-naphthalenyl)ethyl)thio-pyrimidine] came in with an inhibition at 10 µM in assay [1] of 90%. In assay [1], `CCN(C)C(=O)/C=C/CSc1nc(N)cc(Cl)n1` [Example 203, (E)-N-ethyl-N-methyl-4-[(4-amino-6-chloro-2-pyrimidinyl)thio]-2-butenamide] registered an inhibition at 1 µM of 96%. The compound `CC(Sc1nc(N)c(Br)c(Cl)n1)c1nccc2c1CCCC2` (centres unmarked) [Example 236, 4-Amino-5-bromo-6-chloro-2-(1-(1-(5,6,7,8-tetrahydroisoquinolyl))ethyl)thio-pyrimidine] returned an inhibition at 1 µM in assay [1] of 58%. As to `Nc1cc(Cl)nc(SCc2cccc([N+](=O)[O-])c2)n1` [Example 45, 4-amino-6-chloro-2-(3-nitrophenylmethylthio)-pyrimidine], the pIC50 in assay [2] (setting [3]) is 6.96. Regarding `Cc1ccnc(C(Sc2nc(N)cc(Cl)n2)C2CC2)c1` (centres unmarked) [Example 226, 4-Amino-6-chloro-2-(1-(4-methyl-2-pyridyl)-1-cyclopropyl-methyl)thio-pyrimidine mesylate], in assay [1], the inhibition at 50 µM stood at 79%. On to `Cc1cccc(CSc2nc(N)cc(Cl)n2)n1` [Example 113, 4-amino-6-chloro-2-[2-(6-methyl)pyridylmethylthio]-pyrimidine], for which the negative logarithm of the IC50 (pIC50) in assay [2] (setting [3]) was 7.05. In the case of `Nc1cc(Cl)nc(SCc2cc(Br)cc(Br)c2)n1` [Example 52, 4-amino-6-chloro-2-(3,5-dibromophenylmethylthio)-pyrimidine], the negative-log IC50 (pIC50) in assay [2] (setting [3]) is 6.70. The same measure, in the same setting: in the case of `Nc1cc(Cl)nc(SCc2cccc(C(F)(F)F)c2)n1` [Example 38, 4-amino-6-chloro-2-(3-trifluoromethylphenylmethylthio)-pyrimidine] it was 6.00; in that of `Nc1cc(Cl)nc(SCC2=Cc3ccccc3CC2)n1` [Example 171, 4-Amino-6-chloro-2-[[(3,4-dihydro-1-naphthalen-2-yl)methyl]thio]-pyrimidine], 6.00; in that of `CC(C)Oc1cccc(CSc2nc(N)cc(Cl)n2)c1` [Example 109, 4-amino-6-chloro-2-(3-isopropoxyphenylmethylthio)-pyrimidine], 5.70. The same measure, in the same setting: in the case of `Clc1cc(N2CCOCC2)nc(SCc2ccccc2)n1` [Example 86, 4-morpholino-6-chloro-2-(benzylthio)-pyrimidine] it was 4.40; in that of `Nc1ccnc(SCc2ccc3ccccc3c2)n1` [Example 98, 4-amino-2-(2-naphthylmethylthio)-pyrimidine], 5.30. With `CCOc1ccnc(CSc2nc(N)cc(Cl)n2)c1` [Example 115, 4-amino-6-chloro-2-[2-(4-ethoxy)pyridylmethylthio]-pyrimidine], the pIC50 in assay [2] (setting [3]) was 7.30.

Consider `Nc1nc(SCc2cc(Cl)ccn2)nc(Cl)c1F` [Example 149, 4-amino-6-chloro-5-fluoro-2-[2-(4-chloro)pyridylmethylthio]pyrimidine], for which, in assay [2] (setting [3]), the negative-log IC50 (pIC50) was 7.30. Regarding `Nc1cc(Cl)nc(SCc2ccc(Cl)cc2Cl)n1` [Example 51, 4-amino-6-chloro-2-(2,4-dichlorophenylmethylthio)-pyrimidine], the negative logarithm of the IC50 (pIC50) in assay [2] (setting [3]) was 6.00. Regarding `C=C(C)[C@@H]1CC=C(CSc2nc(N)cc(Cl)n2)CC1` [Example 157, 4-Amino-6-chloro-2-[((S)-(--)perillyl)thio]pyrimidine], the negative logarithm of the IC50 (pIC50) in assay [2] (setting [3]) is 5.00. The same measure, in the same setting: in the case of `CC(C)(C)c1ccc(CSc2nc(N)cc(Cl)n2)cc1` [Example 47, 4-amino-6-chloro-2-(4-t-butylphenylmethylthio)-pyrimidine] it was 6.00. As for `Nc1cc(Cl)nc(SCC(=O)c2ccccc2)n1` [Example 100, 4-amino-6-chloro-2-[2-(1-phenyl-1-ethanon)thio]-pyrimidine], in assay [2] (setting [3]), the negative-log IC50 (pIC50) is 5.70. On to `COC(=O)c1ccc(CSc2nc(N)cc(Cl)n2)nc1` [Example 188, 4-amino-6-chloro-2[2-(5-carbomethyoxy)pyridylmethylthio]pyrimidine], for which, in assay [2] (IC50 (Table I, P236L)), the negative logarithm of the IC50 (pIC50) was 4.30.

For `CCCc1ccnc(CSc2nc(N)cc(Cl)n2)c1` [Example 131, 4-amino-6-chloro-2-[2-(4-propyl)pyridylmethylthio]-pyrimidine], the negative-log IC50 (pIC50) in assay [2] (setting [3]) was 7.30. Still for that read-out and setting: in the case of `Cc1cc(CSc2nc(N)cc(Cl)n2)ncn1` [Example 130, 4-amino-6-chloro-2-[4-(6-methyl)pyrimidinylmethylthio]-pyrimidine] it was 6.10; in that of `CCCNc1cc(Cl)nc(SCc2ccccc2)n1` [Example 87, 4-propylamino-6-chloro-2-(benzylthio)-pyrimidine], 4.00. As for “4-Amino-6-chloro-2-[[(5-chloroimidazo[1,2-a]pyridin-2-yl)methyl]thio]-pyrimidine [Example 172]”, the pIC50 in assay [2] (setting [3]) is 4.30.
